Results: patent US20230233500A1, “Gasdermin D (GSDMD) Succination for the Treatment of Inflammatory Disease” (University of Massachusetts, priority 2020, published 2023)
Counter-ions that a name gives are not always drawn.

Assays:
recombinant GSDMD = molecular target: T1, recombinant GSDMD (Homo sapiens, UniProt P57764); assay: MMF-Yne labelling of recombinant GSDMD competed by fumarate, intact MS; format: binding; conditions: 1 μM GSDMD
T1 sequence (P57764 1-484): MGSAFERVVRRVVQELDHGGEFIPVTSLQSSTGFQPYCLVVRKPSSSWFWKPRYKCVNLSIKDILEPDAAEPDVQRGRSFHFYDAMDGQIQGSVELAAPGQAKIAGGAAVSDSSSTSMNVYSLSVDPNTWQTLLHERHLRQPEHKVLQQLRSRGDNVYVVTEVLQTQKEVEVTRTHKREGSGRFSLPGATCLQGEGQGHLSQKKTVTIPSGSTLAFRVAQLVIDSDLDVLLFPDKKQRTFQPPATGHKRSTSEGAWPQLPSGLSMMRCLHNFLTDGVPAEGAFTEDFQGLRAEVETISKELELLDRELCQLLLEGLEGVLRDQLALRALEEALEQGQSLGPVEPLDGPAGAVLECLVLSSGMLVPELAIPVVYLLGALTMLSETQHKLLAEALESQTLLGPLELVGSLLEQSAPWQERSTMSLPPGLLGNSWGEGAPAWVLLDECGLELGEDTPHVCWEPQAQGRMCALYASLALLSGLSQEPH
Procedure: FIGS. 11A-E. Fumarate binds to GSDMD. (A) Immunoblot analysis of MMF-Yne bound proteins using a streptavidin-IR dye. (B) Representative MS spectra of GSDMD identified in streptavidin pulldowns subjected to mass spec. (C-D) Immunoblot analysis (C) and densitometry analysis (D) of streptavidin-IR dye detecting MMF-Yne labelled recombinant GSDMD incubated with the indicated concentrations of fumarate and copper clicked using a biotin-azide. (E) Intact MS analysis of recombinant GSDMD (1 μM) incubated in a succination reaction with DMSO (vehicle) or fumarate (25 μM) for 2 hours. A-E Representative images from 2 independent experiments..
Intact mass analysis of GSDMD protein was carried out using an Acquity UPLC (Waters Corporation, Milford, Mass.) coupled to a Synapt G2-Si (Waters) quadrupole time-of-flight mass spectrometer fitted with an electrospray ionization source. Liquid chromatography was carried out with a 3.0×50 mm(4 μm) MAbPac RP column (Thermo Scientific, Waltham, Mass.) using mobile phase A and B containing 0.1% (v/v) formic acid in water, and 0.1% (v/v) formic acid in acetonitrile, respectively. A total of 0.6 μg sample was injected and the protein eluted using a linear gradient of 10 to 70% B over 7.0 minutes at a flow rate of 0.3 ml/min. […]

[1] = molecular target: T2, caspase 1-GSDMD interactions (Mus musculus, UniProt Q9D8T2); assay: Caspase 1-GSDMD interaction and caspase 1 processing in BMDMs; format: cell-based
T2 construct: Immunoblots of casplp20 and GSDMD in BMDMs (I); endogenous in cells; host or cells: primary mouse BMDMs
T2 sequence (Q9D8T2 1-487): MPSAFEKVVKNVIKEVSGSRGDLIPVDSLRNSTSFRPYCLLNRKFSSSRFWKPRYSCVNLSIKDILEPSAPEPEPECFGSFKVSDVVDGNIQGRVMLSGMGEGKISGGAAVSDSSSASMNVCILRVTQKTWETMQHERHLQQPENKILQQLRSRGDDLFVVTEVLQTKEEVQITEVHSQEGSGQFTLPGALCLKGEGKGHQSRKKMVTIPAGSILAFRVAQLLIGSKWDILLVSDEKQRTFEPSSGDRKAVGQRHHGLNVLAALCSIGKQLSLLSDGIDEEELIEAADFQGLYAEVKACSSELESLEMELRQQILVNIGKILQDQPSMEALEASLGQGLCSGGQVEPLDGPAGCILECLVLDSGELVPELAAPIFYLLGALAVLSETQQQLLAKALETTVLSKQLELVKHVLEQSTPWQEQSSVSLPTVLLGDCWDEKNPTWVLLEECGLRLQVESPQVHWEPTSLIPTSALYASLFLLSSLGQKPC
Text: FIGS. 2A-J. Succination of GSDMD inhibits pyroptosis. Immunoblot of GSDMD in streptavidin pulldown from clicked lysates treated as indicated (A-B). Representative MS spectra of 2-monomethyl and 2-dimethylsuccination of GSDMD immunoprecipitated from fumarate treated BMDMs (C-D). Immunoblot of GSDMD in clicked lysates from transfected HEK293T. Cell death of HEK293T transfected as indicated (F-H). Immunoblots of casplp20 and GSDMD in BMDMs (I). Immunoblots of an in vitro binding assay of succinated and non-succinated GSDMD incubated with caspase 1 beads (J). A, B, F, J, […] representative images from three independent experiments. C, D, E, representative mass spec spectra from two independent experiments. H, I pooled data from three independent experiments. ***, P<0.001 (One-way anova). Error bars show means±SEM.
Primary BMDMs from WT or GsdmD^−/− mice were cultured in 12-well plates (1×10^6 cells per ml; 1 ml) or 10 cm dishes (2×10^6 cells per ml; 10 ml). HEK293T cells (2.5×10^5 cells per ml; 3 ml) were cultured in 6-well plates and transfected with FLAG-tagged GSDMD constructs where indicated. For cell lysate analysis cells were lysed directly in 1× Lamelli sample buffer. […] Samples were resolved by SDS-PAGE and stained using simply blue safe stain or transferred to nitrocellulose membranes and analyzed by immunoblot. […]

## COC(=O)/C=C/C(=O)OC [Fumarate, Dimethyl fumarate]
Recombinant GSDMD
  concentration at which maximum occupancy of GSDMD was achieved: 25 µM
[1]; casp1 p20 immunoblot
  processing of caspase 1: not impaired
[1]; immunoblots
  caspase 1-GSDMD interactions: completely blocked
